The values below are quoted from earlier work in PMC9516332 (Frontiers in Oncology, 2022).

In data set [1] the target is T1, panel of 255 wild-type kinases (Homo sapiens, UniProt Q92630).
T1 sequence (Q92630 1-601): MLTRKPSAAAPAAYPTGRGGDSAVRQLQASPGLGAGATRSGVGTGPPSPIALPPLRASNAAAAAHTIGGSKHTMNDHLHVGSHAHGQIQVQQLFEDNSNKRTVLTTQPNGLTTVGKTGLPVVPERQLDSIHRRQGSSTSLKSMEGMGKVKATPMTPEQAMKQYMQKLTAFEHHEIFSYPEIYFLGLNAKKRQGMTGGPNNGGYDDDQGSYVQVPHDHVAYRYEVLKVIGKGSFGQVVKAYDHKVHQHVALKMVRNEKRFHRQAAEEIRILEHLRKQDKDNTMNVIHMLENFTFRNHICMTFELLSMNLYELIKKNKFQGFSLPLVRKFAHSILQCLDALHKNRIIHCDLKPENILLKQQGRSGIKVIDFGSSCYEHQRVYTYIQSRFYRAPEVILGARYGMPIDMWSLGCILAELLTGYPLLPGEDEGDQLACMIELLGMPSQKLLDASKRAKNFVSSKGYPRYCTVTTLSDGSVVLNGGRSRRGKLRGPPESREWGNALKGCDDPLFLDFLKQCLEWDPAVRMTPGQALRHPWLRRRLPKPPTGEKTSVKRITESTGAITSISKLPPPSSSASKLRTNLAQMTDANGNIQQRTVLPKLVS
Particulars: kinase DYRK2, 1 µmol/L single concentration, cited from earlier work.

The target of data set [2] is T2, panel of 255 wild-type kinases (Homo sapiens, UniProt O00418).
T2 sequence (O00418 1-725): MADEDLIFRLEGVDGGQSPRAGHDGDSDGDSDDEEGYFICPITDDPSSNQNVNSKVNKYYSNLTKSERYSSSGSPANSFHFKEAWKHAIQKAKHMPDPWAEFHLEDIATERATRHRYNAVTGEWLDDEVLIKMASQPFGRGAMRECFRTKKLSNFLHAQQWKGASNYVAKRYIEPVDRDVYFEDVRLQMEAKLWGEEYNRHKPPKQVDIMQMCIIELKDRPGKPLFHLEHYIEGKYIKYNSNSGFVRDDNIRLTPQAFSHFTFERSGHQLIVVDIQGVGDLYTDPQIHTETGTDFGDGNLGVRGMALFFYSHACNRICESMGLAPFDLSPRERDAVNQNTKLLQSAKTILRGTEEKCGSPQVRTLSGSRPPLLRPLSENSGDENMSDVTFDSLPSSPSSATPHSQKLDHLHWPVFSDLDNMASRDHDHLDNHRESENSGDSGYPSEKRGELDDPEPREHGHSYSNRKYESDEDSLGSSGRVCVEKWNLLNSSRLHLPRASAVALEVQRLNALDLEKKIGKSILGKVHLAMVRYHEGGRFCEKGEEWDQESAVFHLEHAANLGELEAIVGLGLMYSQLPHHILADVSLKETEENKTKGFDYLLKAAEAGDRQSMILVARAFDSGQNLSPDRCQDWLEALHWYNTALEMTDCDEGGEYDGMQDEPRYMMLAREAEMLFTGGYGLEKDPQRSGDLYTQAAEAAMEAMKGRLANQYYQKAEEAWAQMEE
Particulars: kinase EEF2K, 1 µmol/L single concentration, cited from earlier work.

The target in data set [3] is panel of 255 wild-type kinases (Homo sapiens, UniProt Q00534). Particulars: CDK6/CycD3 kinase assay, 1 µmol/L single concentration, cited from earlier work.
For data set [4], the target named is panel of 255 wild-type kinases (Homo sapiens, UniProt P53350). Particulars: kinase PLK1, 1 µmol/L single concentration, cited from earlier work.
Data set [5] concerns the target panel of 255 wild-type kinases (Homo sapiens, UniProt Q96SB4). Particulars: kinase SRPK1, 1 µmol/L single concentration, cited from earlier work.
The target of data set [6] is panel of 255 wild-type kinases (Homo sapiens, UniProt Q16288). Particulars: kinase TRKC, 1 µmol/L single concentration, cited from earlier work.
In data set [7] the target is T3, panel of 255 wild-type kinases (Homo sapiens, UniProt P51813).
T3 sequence (P51813 1-675): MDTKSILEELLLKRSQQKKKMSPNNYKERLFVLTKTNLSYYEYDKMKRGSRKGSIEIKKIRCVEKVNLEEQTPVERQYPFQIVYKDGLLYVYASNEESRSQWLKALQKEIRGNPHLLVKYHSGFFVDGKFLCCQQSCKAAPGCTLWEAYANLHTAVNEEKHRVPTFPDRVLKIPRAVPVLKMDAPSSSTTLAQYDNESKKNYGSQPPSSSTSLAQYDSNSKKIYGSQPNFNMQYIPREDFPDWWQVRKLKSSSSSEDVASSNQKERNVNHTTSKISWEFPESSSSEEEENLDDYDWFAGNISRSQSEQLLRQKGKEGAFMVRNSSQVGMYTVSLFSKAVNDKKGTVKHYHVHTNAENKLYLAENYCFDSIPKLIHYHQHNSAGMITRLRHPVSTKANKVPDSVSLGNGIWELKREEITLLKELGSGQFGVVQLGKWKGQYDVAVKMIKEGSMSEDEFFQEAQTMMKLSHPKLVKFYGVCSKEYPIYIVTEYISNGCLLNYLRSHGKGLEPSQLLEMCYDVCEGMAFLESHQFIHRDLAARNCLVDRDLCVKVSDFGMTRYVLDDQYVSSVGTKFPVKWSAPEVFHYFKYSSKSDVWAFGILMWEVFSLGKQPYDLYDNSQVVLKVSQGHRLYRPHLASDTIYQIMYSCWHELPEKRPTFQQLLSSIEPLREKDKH
Particulars: BMX kinase assay, 1 µmol/L single concentration, cited from earlier work.

Data set [8] concerns the target panel of 255 wild-type kinases (Homo sapiens, UniProt Q14289). Particulars: kinase PYK2, 1 µmol/L single concentration, cited from earlier work.
Data set [9] deals with panel of 255 wild-type kinases (Homo sapiens, UniProt Q9UK32). Particulars: kinase RSK4, 1 µmol/L single concentration, cited from earlier work.
[10] abbreviates: ref DOI: 10.1158/1535-7163.MCT-18-0877.
Setting [11] is: ref DOI: 10.1371/journal.pone.0092146.

Like-named read-outs stand apart in the source and are kept apart here.

For the compound `C=CC(=O)Nc1cc(Nc2nccc(-c3cn(C)c4ccccc34)n2)c(OC)cc1N(C)CCN(C)C` [osimertinib], the “%-inhibition at 1 µmol/L, DYRK2” value in data set [1] (setting [10]) is 45%. Moreover, the “%-inhibition at 1 µmol/L, EEF2K” value in data set [2] (setting [10]) is given as -0.355%. Also, the “%-inhibition CDK6/CycD3” value in [3] (setting [10]) was 0.62%. In addition, the “%-inhibition at 1 µmol/L, PLK1” value in [4] (setting [10]) is reported as -0.476%. For the same compound, the “%-inhibition at 1 µmol/L, SRPK1” value in [5] (setting [10]) is -9%. In data set [6] (setting [10]), the “%-inhibition at 1 µmol/L, TRKC” value is reported as -1.61%. The “%-inhibition BMX” value in data set [7] (setting [10]) is reported as 57%. Moreover, in data set [8] (setting [10]), the “%-inhibition at 1 µmol/L, PYK2” value is 62%. In addition, in data set [9] (setting [10]), the “%-inhibition at 1 µmol/L, RSK4” value is 38%.

For `CC(=O)Nc1cccc(-n2c(=O)n(C3CC3)c(=O)c3c(Nc4ccc(I)cc4F)n(C)c(=O)c(C)c32)c1` [trametinib], the “%-inhibition at 1 µmol/L, DYRK2” value in data set [1] (setting [11]) was -0.0865%. In data set [2] (setting [11]), the “%-inhibition at 1 µmol/L, EEF2K” value is on record as -3.43%. In addition, the “%-inhibition CDK6/CycD3” value in data set [3] (setting [11]) is reported as -4.23%. In addition, the “%-inhibition at 1 µmol/L, PLK1” value in [4] (setting [11]) is listed as -9%. Also, the “%-inhibition at 1 µmol/L, SRPK1” value in data set [5] (setting [11]) was -0.0691%. Moreover, the “%-inhibition at 1 µmol/L, TRKC” value in [6] (setting [11]) is -7.43%. Besides, in data set [7] (setting [11]), the “%-inhibition BMX” value is listed as -3.22%. The “%-inhibition at 1 µmol/L, PYK2” value in data set [8] (setting [11]) was 2.72%. In addition, the “%-inhibition at 1 µmol/L, RSK4” value in [9] (setting [11]) is 0.208%.

For `CCCS(=O)(=O)Nc1ccc(F)c(C(=O)c2c[nH]c3ncc(-c4ccc(Cl)cc4)cc23)c1F` [vemurafenib], in [1] (setting [11]), the “%-inhibition at 1 µmol/L, DYRK2” value is given as 1%. Besides, the “%-inhibition at 1 µmol/L, EEF2K” value in data set [2] (setting [11]) is recorded as -5%. Besides, in data set [3] (setting [11]), the “%-inhibition CDK6/CycD3” value is given as 2.43%. Besides, the “%-inhibition at 1 µmol/L, PLK1” value in data set [4] (setting [11]) is -4%. Besides, the “%-inhibition at 1 µmol/L, SRPK1” value in data set [5] (setting [11]) is 2%. In addition, the “%-inhibition at 1 µmol/L, TRKC” value in data set [6] (setting [11]) is listed as 5%. In data set [7] (setting [11]), the “%-inhibition BMX” value is recorded as 24%. Besides, the “%-inhibition at 1 µmol/L, PYK2” value in data set [8] (setting [11]) was 0.921%. Also, the “%-inhibition at 1 µmol/L, RSK4” value in [9] (setting [11]) is -3%.
